The values below come from patent US11434479B2, “Sialic acid binding polypeptide” (priority 2017, dated 2022).

Where a chain is given by its changes, count along the chain named. “Also recorded” adds a separate entry of the source.

For assay [1], the target named is T1, Streptococcus pneumoniae NanB fragment (residues 30-697, SEQ ID NO:4) variant Sia-PS4, E541A (Streptococcus pneumoniae serotype 4, UniProt Q54727, E541A).
T1 construct: exemplified by a NanB fragment (residues 30-697); poly-histidine; made in house; host or cells: pET28a+ based plasmid
T1 sequence (Q54727 30-692 E541A): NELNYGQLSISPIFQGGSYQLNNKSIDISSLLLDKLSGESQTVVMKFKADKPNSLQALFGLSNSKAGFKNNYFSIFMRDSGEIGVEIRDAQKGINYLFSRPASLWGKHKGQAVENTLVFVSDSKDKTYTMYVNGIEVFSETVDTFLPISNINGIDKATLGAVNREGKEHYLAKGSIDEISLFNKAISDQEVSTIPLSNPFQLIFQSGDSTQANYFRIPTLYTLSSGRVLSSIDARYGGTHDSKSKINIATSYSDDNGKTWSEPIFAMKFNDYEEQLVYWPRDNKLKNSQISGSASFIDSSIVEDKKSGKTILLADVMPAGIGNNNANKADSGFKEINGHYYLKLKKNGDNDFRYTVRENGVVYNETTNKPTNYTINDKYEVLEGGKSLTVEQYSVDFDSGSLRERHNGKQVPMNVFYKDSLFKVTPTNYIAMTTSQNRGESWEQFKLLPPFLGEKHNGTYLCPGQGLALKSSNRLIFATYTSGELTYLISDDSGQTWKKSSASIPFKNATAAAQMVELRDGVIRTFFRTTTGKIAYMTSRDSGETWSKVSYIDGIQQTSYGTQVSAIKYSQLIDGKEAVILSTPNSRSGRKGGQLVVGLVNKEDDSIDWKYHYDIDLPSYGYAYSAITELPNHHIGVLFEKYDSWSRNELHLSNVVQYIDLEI
Kind of assay: Bio-layer Interferometry (BLI) steady-state binding to immobilized oligosaccharides. Conditions: in words. An excerpt:
(§1) Lsp=lactose (no sialic acid), 3′SL=α2,3-sialyllactose, 6′SL=α2,6-sialyllactose, GD3=GD3 oligosaccharide that contains a terminal α2,8-linked Neu5Ac residue and an internal α2,3-linked Neu5Ac residue.
(§2) The pan-specific sialic acid-recognizing affinity reagent of the invention is exemplified by a NanB fragment (residues 30-697; SEQ ID NO:4) with a single mutation. Exemplary mutation sites include Y653, D270, and E541. Exemplary pan-specific affinity reagents, each having a single mutation in the NanB GH domain as noted, are shown in Table 2 and include Sia-PS1 (Y653F), Sia-PS2 (D270A), Sia-PS3 (D270N), Sia-PS4 (E541A), and Sia-PS5 (E541Q). […] They reduce (Sia-PS2 and Sia-PS3) or effectively eliminate (Sia-PS1, Sia-PS4, and Sia-PS5) catalytic activity, and they broaden specificity for sialic acid ligand binding. The pan-specific sialic acid-recognizing affinity reagent we chose for further validation study was Sia-PS1 that contains the Y653F at active site residue Tyr653. This one mutation, which involves removal of a single hydroxyl group, not only eliminates enzyme activity, but astonishingly introduces pan-specific binding into the mutated, inactivated enzyme, despite its distance from the carbohydrate binding module (CBM) domain of the NanB.
(§3) The flowchart presented in FIG. 2 outlines schematically the methods employed in Example I and II to screen, optimize and select the Lectenz® candidates. The specificity and affinity of potential Lectenz® candidates is evaluated through structurally-guided site-specific and/or site-saturation mutagenesis assays designed to enable the selection of optimal clones. Bio-layer Interferometry (BLI) is used to determine the binding kinetics and affinities for binding to glycans and glycoproteins. Affinity chromatography is performed by immobilizing the Lectenz® candidates in a column format to evaluate their ability to fractionate sialylated- and asialo-glycans and glycoconjugates. All promising Lectenz® candidates are screened against the glycan array at the CFG, which currently contains over 600 O- and N-linked glycans.
(§4) Steady-state binding constants between Lectenz® candidates and sialic acid ligands were measured by BLI.

In assay [2] the target is T2, Streptococcus pneumoniae NanB fragment (residues 30-697, SEQ ID NO:4) variant Sia-PS1, Y653F (Streptococcus pneumoniae serotype 4, UniProt Q54727, Y653F).
T2 construct: exemplified by a NanB fragment (residues 30-697); made in house; host or cells: pET28a+ based plasmid
T2 sequence (Q54727 30-692 Y653F): T1 sequence (Q54727 30-692 E541A) with A512E, Y624F
Described as above. Conditions: in words.
Source text: as §1, §2, §3, §4

Turning to `CC(=O)N[C@H]1[C@H]([C@H](O)[C@H](O)CO)O[C@@](O[C@H](CO)[C@@H](O)[C@@H]2O[C@@](O[C@H]3[C@@H](O)[C@@H](CO)O[C@@H](O[C@H]4[C@H](O)[C@@H](O)C(O)O[C@@H]4CO)[C@@H]3O)(C(=O)O)C[C@H](O)[C@H]2NC(C)=O)(C(=O)O)C[C@@H]1O` (stereo partly shown) [GD3, Neu5Acα2,8Neu5Acα2,3Galβ1, 4Glcβ], the binding affinity entry is recorded as “micromolar or sub-micromolar” in assay [1] and “micromolar or sub-micromolar; also recorded: sub-micromolar” in assay [2].

With `CC(=O)N[C@H]1[C@H]([C@H](O)[C@H](O)CO)O[C@@](O[C@H]2[C@@H](O)[C@@H](CO)O[C@@H](O[C@H]3[C@H](O)[C@@H](O)C(O)O[C@@H]3CO)[C@@H]2O)(C(=O)O)C[C@@H]1O` (stereo partly drawn) [3′SL, α2,3-sialyllactose], in assay [1], the KD value entry is reported as “sub-micromolar”. Further, the figures for the binding affinity entry in assay [1] and in assay [2] were “micromolar or sub-micromolar” and “micromolar or sub-micromolar; also recorded: sub-micromolar”, respectively.

Turning to `CC(=O)N[C@H]1[C@H]([C@H](O)[C@H](O)CO)O[C@@](OC[C@H]2O[C@@H](O[C@H]3[C@H](O)[C@@H](O)C(O)O[C@@H]3CO)[C@H](O)[C@@H](O)[C@H]2O)(C(=O)O)C[C@@H]1O` (stereo partly shown) [6′SL, 6′-sialyllactose (Neu5Acα2,6Galβ1, 4Glcβ, or 6′SL)], the binding affinity entry in assay [1] is “micromolar or sub-micromolar”; in assay [2], “micromolar or sub-micromolar; also recorded: sub-micromolar”.
